Read-outs that look alike come from different tables or passages of the source.
Experiments:
F508del-hCFTR = target: T1, F508del-hCFTR (Homo sapiens, UniProt P13569, DEL508-508); test: Two-electrode voltage clamp (TEVC) on F508del-hCFTR expressed in Xenopus oocytes; type: cell-based; conditions: for potentiation of F508del-hCFTR, summary in words: FIGS. 4A and 4B under modified conditions
T1 construct: expressed in transfected cells; host or cells: Xenopus laevis oocytes injected with cRNA; The mutant was made by Quikchange mutagenesis of hCFTR/pGEMHE
Description: Nearly 90% of CF patients in the United States bear at least one F508del-CFTR allele; OSSK-3, and OSSK-2 were studied on F508del-hCFTR using the TEVC technique at VM=−60 mV.
(§1) Human CFTR cRNAs used in electrophysiology experiments were prepared from constructs encoding WT-hCFTR in the pGEMHE vector (hCFTR/pGEMHE kindly provided by Dr. D. Gadsby, Rockefeller University). The mutants of hCFTR used in this study were prepared using site-directed mutagenesis with the Quikchange protocol (Stratagene, La Jolla, Calif.) and mutant constructs were verified by sequencing across the entire open reading frame before use. Xenopus laevis oocytes were injected with 0.4-10 ng of CFTR cRNAs, and were incubated at 17° C. in modified Liebovitz's L-15 media with the addition of HEPES (pH 7.5), penicillin, and streptomycin. Recordings were made typically 24-96 hours after the injection of cRNAs.
(§2) Standard two-electrode voltage clamp (TEVC) techniques were used to study the effects of chemicals with application of reagents to the extracellular bath. Each oocyte was injected with CFTR cRNA along with cRNA encoding the beta2-adrenergic receptor (β2AR). Electrode resistances measured 0.5-1.4 MΩ when filled with 3 M KCl and measured in standard ND96 bath solution that contained (in mM): 96 NaCl, 2 KCl, 1 MgCl2, and 5 HEPES (pH 7.5). CFTR channels were activated by exposure to 10 μM isoproterenol (ISO) in ND 96 and alternatively assayed in the presence or absence of different concentrations of compounds in the bath solution, typically in the continuing presence of ISO. Currents were acquired with an Axoclamp 900A amplifier and Clampex 10.2 software, and current data were digitized at 2 kHz.

WT-hCFTR [1] = target: T2, WT-hCFTR (Homo sapiens, UniProt P13569); test: Two-electrode voltage clamp (TEVC) on wildtype hCFTR expressed in Xenopus oocytes; type: cell-based; conditions: for effect on hCFTR current (block / potentiation), in words / Kd: ~50 s extracellular exposure; for Kd: VM=−60 mV
T2 construct: expressed in transfected cells; host or cells: Xenopus laevis oocytes injected with cRNA (pGEMHE construct from Dr. D. Gadsby)
Description: The effects of OSSK-2 and OSSK-3 on hCFTR were tested by expression in Xenopus oocytes. Representative current traces using the two-electrode voltage clamp technique (TEVC) are shown in FIGS. 2A and 2B for OSSK-3 and FIG. 2C for OSSK-2.
as §1, §2

WT-hCFTR [2] = target: T2, WT-hCFTR; conditions: cited from earlier work
multiple CFTR mutations = conditions: cited from earlier work

T2 sequence (P13569 whole entry): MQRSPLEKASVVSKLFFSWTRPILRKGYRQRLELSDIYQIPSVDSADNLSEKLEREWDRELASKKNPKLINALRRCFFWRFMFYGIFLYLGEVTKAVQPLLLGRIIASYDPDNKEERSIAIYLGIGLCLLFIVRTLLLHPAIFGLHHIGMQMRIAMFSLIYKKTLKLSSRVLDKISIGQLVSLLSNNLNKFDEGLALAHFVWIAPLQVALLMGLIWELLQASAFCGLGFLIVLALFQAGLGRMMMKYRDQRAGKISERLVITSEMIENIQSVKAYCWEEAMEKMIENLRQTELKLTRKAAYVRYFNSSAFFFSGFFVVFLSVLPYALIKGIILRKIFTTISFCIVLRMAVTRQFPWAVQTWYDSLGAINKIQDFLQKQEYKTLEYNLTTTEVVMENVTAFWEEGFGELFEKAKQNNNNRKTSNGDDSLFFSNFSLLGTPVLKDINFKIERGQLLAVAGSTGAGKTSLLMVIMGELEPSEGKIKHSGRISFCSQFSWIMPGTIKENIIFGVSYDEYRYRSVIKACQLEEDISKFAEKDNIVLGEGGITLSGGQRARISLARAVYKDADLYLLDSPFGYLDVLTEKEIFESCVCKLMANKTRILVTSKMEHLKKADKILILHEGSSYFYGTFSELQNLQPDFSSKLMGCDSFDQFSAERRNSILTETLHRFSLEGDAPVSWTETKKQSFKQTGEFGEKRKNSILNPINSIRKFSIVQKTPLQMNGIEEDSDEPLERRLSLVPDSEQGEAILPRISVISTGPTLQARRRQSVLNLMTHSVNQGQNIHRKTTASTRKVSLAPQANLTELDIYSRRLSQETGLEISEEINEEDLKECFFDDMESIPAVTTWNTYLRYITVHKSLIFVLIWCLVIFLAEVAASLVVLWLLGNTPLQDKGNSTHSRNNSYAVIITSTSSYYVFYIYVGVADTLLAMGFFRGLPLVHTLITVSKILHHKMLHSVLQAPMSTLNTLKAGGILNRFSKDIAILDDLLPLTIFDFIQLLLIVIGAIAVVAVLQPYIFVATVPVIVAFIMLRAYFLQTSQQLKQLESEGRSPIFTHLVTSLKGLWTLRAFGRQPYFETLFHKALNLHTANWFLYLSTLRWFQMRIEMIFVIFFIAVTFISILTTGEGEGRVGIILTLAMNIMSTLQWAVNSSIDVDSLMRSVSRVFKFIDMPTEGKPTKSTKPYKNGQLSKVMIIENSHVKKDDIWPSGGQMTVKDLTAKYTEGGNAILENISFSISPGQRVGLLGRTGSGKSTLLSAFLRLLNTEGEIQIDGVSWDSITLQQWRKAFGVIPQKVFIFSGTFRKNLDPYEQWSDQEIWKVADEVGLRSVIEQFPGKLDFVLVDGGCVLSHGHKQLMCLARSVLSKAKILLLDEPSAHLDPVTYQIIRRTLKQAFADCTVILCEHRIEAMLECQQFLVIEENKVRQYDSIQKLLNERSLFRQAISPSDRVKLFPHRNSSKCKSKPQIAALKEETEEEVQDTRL
T1 sequence (P13569 with tags, fused parts or gaps DEL508-508): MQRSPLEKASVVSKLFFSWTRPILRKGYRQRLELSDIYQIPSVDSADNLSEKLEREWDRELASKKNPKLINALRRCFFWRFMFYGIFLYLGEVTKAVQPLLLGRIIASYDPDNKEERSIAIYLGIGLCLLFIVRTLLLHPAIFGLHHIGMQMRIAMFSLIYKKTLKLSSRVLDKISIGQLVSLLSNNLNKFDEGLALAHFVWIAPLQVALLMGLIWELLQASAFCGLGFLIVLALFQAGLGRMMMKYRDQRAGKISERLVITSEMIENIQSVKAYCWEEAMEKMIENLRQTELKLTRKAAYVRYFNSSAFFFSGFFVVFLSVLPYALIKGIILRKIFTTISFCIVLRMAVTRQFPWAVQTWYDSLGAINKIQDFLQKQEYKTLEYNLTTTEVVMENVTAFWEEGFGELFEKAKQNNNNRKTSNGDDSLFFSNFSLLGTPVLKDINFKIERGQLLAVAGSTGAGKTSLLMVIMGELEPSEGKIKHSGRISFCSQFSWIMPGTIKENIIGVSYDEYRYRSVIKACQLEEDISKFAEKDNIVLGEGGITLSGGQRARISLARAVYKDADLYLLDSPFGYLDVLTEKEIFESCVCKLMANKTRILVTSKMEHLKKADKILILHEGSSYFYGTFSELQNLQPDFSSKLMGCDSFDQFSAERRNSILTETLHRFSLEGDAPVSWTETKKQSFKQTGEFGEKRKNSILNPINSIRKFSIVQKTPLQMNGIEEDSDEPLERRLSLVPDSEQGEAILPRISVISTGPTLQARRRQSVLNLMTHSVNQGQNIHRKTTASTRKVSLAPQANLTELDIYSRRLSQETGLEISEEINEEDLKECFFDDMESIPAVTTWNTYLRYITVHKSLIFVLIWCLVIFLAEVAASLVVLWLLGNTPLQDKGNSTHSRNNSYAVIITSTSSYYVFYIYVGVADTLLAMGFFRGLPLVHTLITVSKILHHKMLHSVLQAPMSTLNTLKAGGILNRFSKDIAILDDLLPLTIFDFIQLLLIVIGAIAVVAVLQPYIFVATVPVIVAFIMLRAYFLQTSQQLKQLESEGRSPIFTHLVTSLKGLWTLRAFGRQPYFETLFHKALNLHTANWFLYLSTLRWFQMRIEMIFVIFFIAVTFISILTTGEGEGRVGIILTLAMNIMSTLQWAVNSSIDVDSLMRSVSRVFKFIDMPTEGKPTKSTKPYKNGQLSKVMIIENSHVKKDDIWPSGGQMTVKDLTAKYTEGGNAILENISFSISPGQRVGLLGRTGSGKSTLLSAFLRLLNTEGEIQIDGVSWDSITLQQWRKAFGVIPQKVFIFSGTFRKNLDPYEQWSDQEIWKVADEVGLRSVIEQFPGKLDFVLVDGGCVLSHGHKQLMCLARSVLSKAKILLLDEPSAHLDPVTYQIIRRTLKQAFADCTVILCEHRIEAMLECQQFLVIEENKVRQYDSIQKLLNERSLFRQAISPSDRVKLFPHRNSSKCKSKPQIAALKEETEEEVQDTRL

Row | potentiation of F508del-hCFTR, summary in words (F508del-hCFTR) | potentiation of WT-hCFTR, summary in words (WT-hCFTR [1]) | Kd (WT-hCFTR [1]; read-out: apparent Kd for block of hCFTR) [µM] | Kd (WT-hCFTR [1]; read-out: apparent Kd for potentiation of hCFTR) [µM] | Compound | effect on hCFTR current (block / potentiation), in words (WT-hCFTR [1]) | effect on F508del-hCFTR current (block / potentiation), in words (F508del-hCFTR; VM=−60 mV, 5 μM, ~50 s extracellular exposure) | potentiation of WT-hCFTR, in words (WT-hCFTR [2]) | potentiation of mutant CFTR, in words (multiple CFTR mutations)
1 | very strongly potentiate F508del-hCFTR | mildly potentiate WT-hCFTR |  |  | Cc1cccc(NCC(=O)N/N=C/c2cc(Br)c(O)c(Br)c2O)c1 [OSSK-2, (E)-N′-(3,5-dibromo-2,4-dihydroxybenzylidene)-2-(m-tolylamino)acetohydrazide] | very weak block on hCFTR without obvious potentiation |  |  | 
2 | very strongly potentiate F508del-hCFTR | mildly potentiate WT-hCFTR | 33 | 0.0317 | Cc1ccc(NCC(=O)N/N=C/c2cc(Br)c(O)c(Br)c2O)cc1 [OSSK-3, (E)-N′-(3,5-dibromo-2,4-dihydroxybenzylidene)-2-(p-tolylamino)acetohydrazide] | both block as well as potentiation of hCFTR | very weak initial block that was followed by significantly stronger potentiation compared to the potentiation of WT-hCFTR |  | 
3 |  |  |  |  | CC(C)(C)c1cc(C(C)(C)C)c(NC(=O)c2c[nH]c3ccccc3c2=O)cc1O [VX-770, ivacaftor] |  |  | only mildly potentiates WT-hCFTR | strongly potentiates multiple CFTR mutations

Reference: US11116736B2, “2-amino-N'-benzylideneacetohydrazides and derivatives for the management of CFTR protein mediated diseases” (Emory University, priority 2015, dated 2021)
